Patent publication US11834454B2, “Alkynylphenylbenzamide compounds and applications thereof” (SHENZHEN NEWDEL BIOTECH CO., LTD., priority 2021, dated 2023)

Assays:
[1] = molecular target: T1, BaF3-ETV6-NTRK2 (Homo sapiens, UniProt Q16620); test: Cell proliferation inhibition, Ba/F3-TRKs stable strain (CCK-8); format: cell-based, mouse; details: 72 hours, read-out: cell viability IC50 ETV6-NTRK2
T1 construct: fused on or other part: P41212 (Transcription factor ETV6)
Description: (§1) The BaF3 cells (mouse pre-B cells) used in this experiment were purchased from the Japanese Cell Bank. All of the monoclonal stable strains, BaF3-CD74-NTRK1, BaF3-ETV6-NTRK2 and BaF3-ETV6-NTRK3 were constructed by our laboratory, and were identified by experiments such as positive control, protein expression and gene sequencing.
(§2) The brief steps of stable strain construction were as follows: constructed pCDNA3.1(+) plasmid vector carrying genes such as CD74-NTRK1, ETV6-NTRK2, ETV6-NTRK3; the plasmid was electroporated into Ba/F3 cells using Amaxa® Cell Line Nucleofector® Kit V; 48 hours after electroporation, geneticin (G418) with a final concentration of 1000 μg/mL was added to screen for two weeks, and the interleukin 3 (IL3) was removed to continue screening to obtain polyclonal stable strains; and then single clones were selected by limiting dilution method; the stable strains were then identified by the positive drugs, Western Blot (WB), and gene sequencing; the correct monoclonal through identification can be used to study the cell proliferation inhibitory activity of the inhibitors.
(§3) Cell proliferation inhibitory activity study: The cells in logarithmic growth phase were seeded into 96-well plates at 8000-12000 cells/well, and the inhibitors at different concentrations of (0-10 μM) were added the next day, and the culture was continued for 72 hours; then 10 μL of Cell Counting Kit-8 Cell Counting Reagent (CCK-8 Reagent) was added to each well, and continued to incubate for 1-3 hours; then its absorbance at 450 nm and 650 nm were measured with a super microplate reader. The median inhibitory concentration (IC50) was calculated using medical graphing software (GraphPad Prism 8.0.0).

[2] = molecular target: T2, BaF3-ETV6-NTRK3 (Homo sapiens, UniProt Q16288); test: as above; format: cell-based, mouse; details: 72 hours, read-out: cell viability IC50 ETV6-NTRK3
T2 construct: fused on or other part: P41212 (Transcription factor ETV6)
Description: as §1, §2, §3

[3] = molecular target: T3, BaF3-CD74-NTRK1 (Homo sapiens, UniProt P04629); test: as above; format: cell-based, mouse; details: 72 hours, read-out: cell viability IC50 CD74-NTRK1
T3 construct: fused on or other part: P04233 (HLA class II histocompatibility antigen gamma chain)
Description: as §1, §2, §3

[4] = molecular target: T4, TRKB (Homo sapiens, UniProt Q16620); test: Z'-LYTE kinase activity detection, TRKB; format: biochemical
T4 construct: purchased American Life Technologies PV3616

[5] = molecular target: T5, TRKA (Homo sapiens, UniProt P04629); test: Z'-LYTE kinase activity detection, TRKA; format: biochemical
T5 construct: purchased American Life Technologies PV3144

[6] = molecular target: T6, TRKC (Homo sapiens, UniProt Q16288); test: Z'-LYTE kinase activity detection, TRKC; format: biochemical
T6 construct: purchased American Life Technologies PV3617
T6 sequence (Q16288 32-839): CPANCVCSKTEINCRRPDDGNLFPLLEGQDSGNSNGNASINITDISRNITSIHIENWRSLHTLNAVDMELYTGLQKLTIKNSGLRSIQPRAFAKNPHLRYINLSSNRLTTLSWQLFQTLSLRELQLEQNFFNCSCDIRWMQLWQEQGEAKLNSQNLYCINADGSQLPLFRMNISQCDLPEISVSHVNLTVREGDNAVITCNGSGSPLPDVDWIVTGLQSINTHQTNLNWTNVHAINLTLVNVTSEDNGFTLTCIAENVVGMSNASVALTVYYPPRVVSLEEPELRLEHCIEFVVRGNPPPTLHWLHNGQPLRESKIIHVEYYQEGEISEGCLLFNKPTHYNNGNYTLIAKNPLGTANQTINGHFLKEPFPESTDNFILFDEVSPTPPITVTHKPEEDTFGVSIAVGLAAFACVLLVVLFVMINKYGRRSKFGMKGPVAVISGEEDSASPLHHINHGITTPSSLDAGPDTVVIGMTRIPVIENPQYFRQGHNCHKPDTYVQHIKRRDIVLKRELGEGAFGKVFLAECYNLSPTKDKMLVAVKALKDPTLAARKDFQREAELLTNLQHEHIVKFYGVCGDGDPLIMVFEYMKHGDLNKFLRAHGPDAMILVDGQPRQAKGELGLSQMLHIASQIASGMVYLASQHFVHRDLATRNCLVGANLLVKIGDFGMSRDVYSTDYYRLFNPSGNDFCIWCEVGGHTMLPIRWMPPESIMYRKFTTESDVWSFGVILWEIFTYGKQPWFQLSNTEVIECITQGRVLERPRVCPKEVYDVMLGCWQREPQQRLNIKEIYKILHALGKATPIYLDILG

T5 sequence (P04629 33-796): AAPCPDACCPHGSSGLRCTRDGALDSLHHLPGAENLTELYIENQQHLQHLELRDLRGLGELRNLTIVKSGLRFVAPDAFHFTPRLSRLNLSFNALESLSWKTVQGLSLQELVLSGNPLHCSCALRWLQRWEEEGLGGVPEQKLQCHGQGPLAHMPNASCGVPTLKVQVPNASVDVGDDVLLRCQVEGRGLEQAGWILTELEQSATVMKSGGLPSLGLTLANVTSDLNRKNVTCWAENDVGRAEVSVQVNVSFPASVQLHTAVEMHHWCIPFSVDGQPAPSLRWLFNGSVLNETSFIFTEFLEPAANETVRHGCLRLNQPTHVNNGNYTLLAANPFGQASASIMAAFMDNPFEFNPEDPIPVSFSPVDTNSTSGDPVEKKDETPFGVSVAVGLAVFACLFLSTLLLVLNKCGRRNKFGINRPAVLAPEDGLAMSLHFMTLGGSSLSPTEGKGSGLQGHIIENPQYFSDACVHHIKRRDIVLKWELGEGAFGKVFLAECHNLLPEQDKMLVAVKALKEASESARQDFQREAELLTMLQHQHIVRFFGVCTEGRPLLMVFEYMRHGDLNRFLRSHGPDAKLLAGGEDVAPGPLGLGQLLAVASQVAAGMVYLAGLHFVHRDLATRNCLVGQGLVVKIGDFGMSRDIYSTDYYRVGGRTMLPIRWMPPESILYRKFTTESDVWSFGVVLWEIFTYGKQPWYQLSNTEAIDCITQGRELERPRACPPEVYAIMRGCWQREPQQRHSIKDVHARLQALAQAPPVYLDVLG
T3 sequence (P04629 510-796 limits assumed): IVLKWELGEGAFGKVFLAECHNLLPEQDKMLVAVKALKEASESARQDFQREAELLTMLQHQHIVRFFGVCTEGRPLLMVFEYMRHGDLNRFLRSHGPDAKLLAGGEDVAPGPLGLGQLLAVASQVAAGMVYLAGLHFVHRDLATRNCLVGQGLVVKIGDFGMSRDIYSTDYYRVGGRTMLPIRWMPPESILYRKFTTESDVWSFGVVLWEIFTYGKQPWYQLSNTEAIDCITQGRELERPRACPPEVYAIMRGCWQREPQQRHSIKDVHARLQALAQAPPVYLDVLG
T4 sequence (Q16620 32-822): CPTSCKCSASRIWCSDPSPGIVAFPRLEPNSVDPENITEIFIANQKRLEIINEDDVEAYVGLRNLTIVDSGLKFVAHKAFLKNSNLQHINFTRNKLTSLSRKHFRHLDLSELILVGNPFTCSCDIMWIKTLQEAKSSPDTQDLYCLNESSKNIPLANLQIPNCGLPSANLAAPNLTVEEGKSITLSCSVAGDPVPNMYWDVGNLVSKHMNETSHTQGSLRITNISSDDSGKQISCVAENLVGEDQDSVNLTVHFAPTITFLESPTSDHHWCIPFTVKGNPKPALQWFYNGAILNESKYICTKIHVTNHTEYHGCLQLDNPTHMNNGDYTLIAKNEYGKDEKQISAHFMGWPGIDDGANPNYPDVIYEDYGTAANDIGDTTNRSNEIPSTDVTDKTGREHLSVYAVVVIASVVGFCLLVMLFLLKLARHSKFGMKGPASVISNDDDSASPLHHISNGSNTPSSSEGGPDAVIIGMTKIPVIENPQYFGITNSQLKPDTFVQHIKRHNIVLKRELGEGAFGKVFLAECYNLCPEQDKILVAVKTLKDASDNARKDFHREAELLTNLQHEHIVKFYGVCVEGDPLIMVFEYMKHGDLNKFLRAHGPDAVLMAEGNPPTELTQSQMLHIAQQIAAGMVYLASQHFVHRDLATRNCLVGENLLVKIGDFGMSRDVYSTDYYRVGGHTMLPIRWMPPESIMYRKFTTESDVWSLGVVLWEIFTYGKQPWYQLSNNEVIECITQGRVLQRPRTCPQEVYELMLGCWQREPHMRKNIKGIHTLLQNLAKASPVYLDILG
T2 sequence (Q16288 whole entry, the tested form may be a part): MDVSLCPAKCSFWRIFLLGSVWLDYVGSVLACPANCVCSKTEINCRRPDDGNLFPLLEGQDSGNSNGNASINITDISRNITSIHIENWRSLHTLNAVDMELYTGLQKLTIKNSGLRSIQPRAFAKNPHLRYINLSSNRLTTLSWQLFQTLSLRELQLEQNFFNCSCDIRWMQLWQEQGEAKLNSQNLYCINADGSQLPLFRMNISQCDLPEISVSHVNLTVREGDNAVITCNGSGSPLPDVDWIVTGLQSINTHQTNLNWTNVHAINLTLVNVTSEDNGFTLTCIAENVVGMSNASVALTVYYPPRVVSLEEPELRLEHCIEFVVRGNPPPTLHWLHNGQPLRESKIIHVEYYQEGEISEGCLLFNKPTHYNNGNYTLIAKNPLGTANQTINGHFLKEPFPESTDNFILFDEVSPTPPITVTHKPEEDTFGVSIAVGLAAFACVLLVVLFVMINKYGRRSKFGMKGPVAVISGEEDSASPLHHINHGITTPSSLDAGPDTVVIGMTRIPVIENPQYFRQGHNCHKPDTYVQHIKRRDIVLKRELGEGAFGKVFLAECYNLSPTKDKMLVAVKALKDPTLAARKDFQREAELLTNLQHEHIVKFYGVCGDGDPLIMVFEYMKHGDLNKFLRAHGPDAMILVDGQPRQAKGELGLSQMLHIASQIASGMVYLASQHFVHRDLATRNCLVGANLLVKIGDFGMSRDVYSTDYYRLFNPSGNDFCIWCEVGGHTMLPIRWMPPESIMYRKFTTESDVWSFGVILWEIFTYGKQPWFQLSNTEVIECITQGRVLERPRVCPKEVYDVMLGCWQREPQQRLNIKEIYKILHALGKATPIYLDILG
T1 sequence (Q16620 538-822 limits assumed): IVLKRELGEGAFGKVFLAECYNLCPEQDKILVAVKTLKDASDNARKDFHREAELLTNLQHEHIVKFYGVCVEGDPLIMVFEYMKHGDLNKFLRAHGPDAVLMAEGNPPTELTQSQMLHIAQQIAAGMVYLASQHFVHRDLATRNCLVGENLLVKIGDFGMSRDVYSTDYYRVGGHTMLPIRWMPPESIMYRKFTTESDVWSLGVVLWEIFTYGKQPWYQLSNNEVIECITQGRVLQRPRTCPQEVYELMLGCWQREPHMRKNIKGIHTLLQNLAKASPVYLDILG

Structure (SMILES) | IC50 [4] [nM] | IC50 [5] [nM] | IC50 [6] [nM] | IC50 [1] [nM] | IC50 [2] [nM] | IC50 [3] [nM]
Cc1c(C#Cc2cnc3ccc(N4CC[C@H](O)C4)nn23)cccc1C(=O)Nc1cccc(C(F)(F)F)c1 [XS3-35, (S)-3-((6-(3-HYDROXYPYRROLIDIN-1-YL)IMIDAZO[1,2-B]PYRIDAZIN-3-YL)ETHYNYL)-2-METHYL-N-(3-(TRIFLUOROMETHYL)PHENYL)BENZAMIDE] | 10 to 100 | < 10 | < 10 | 100 to 1000 | 10 to 100 | 10 to 100
COCCNc1ccc2ncc(C#Cc3cccc(C(=O)Nc4cc(Cl)cc(C(F)(F)F)c4)c3C)n2n1 [XS3-135, N-(3-CHLORO-5-(TRIFLUOROMETHYL)PHENYL)-3-((6-((2-METHOXYETHYL)AMINO)IMIDAZO[1,2-B] PYRIDAZIN-3-YL)ETHYNYL)-2-METHYLBENZAMIDE] | 10 to 100 | 10 to 100 | 10 to 100 | 100 to 1000 | 10 to 100 | 100 to 1000
Cc1c(C#Cc2cnc3ccc(NCCCCO)nn23)cccc1C(=O)Nc1cc(Cl)cc(C(F)(F)F)c1 [XS3-139, N-(3-CHLORO-5-(TRIFLUOROMETHYL)PHENYL)-3-((6-((4-HYDROXYBUTYL)AMINO)IMIDAZO[1,2-B]PYRIDAZINE-3-YL)ETHYNYL)-2-METHYLBENZAMIDE] | 10 to 100 | 10 to 100 | 10 to 100 | 10 to 100 | 10 to 100 | 10 to 100
Cc1c(C#Cc2cnc3cccnn23)cccc1C(=O)Nc1cc(CN2CCN(C)CC2)cc(C(F)(F)F)c1 [XS116] | 10 to 100 | 10 to 100 | 10 to 100 | 100 to 1000 | 100 to 1000 | 100 to 1000
Cc1c(C#Cc2cnc3ccc(N4CCN(C)[C@H](C)C4)nn23)cccc1C(=O)Nc1cc(Cl)cc(C(F)(F)F)c1 [XS3-52, (R)—N-(3-CHLORO-5-(TRIFLUOROMETHYL)PHENYL)-3-((6-(3,4-DIMETHYLPIPERAZIN-1-YL)IMIDAZO[1,2-B]PYRIDAZIN-3-YL)ETHYNYL)-2-METHYLBENZAMIDE] | 10 to 100 | 10 to 100 | 10 to 100 | 100 to 1000 | 10 to 100 | 10 to 100
Cc1c(C#Cc2cnc3ccc(N4CCC(N(C)C)CC4)nn23)cccc1C(=O)Nc1cc(CN2CCN(C)CC2)cc(C(F)(F)F)c1 [XS3-67, 3-((6-(4-(DIMETHYLAMINO)PIPERIDIN-1-YL)IMIDAZO[1,2-B]PYRIDAZIN-3-YL)ETHYNYL)-2-METHYL-N-(3-((4-METHYLPIPERAZIN-1-YL)METHYL)-5-(TRIFLUOROMETHYL)PHENYL)BENZAMIDE] | 10 to 100 | < 10 | < 10 | 100 to 1000 | 10 to 100 | 100 to 1000
Cc1c(C#Cc2cnc3ccc(N(C)CCN(C)C)nn23)cccc1C(=O)Nc1cc(Cl)cc(C(F)(F)F)c1 [XS3-134, N-(3-CHLORO-5-(TRIFLUOROMETHYL)PHENYL)-3-((6-((2-(DIMETHYLAMINO)ETHYL)(METHYL)AMINO)IMIDAZO[1,2-B]PYRIDAZIN-3-YL)ETHYNYL)-2-METHYLBENZAMIDE] | 10 to 100 | 10 to 100 | 10 to 100 | 100 to 1000 | 10 to 100 | 100 to 1000
Cc1c(C#Cc2cnc3ccc(N4CC[C@H](O)C4)nn23)cccc1C(=O)Nc1cc(Cl)cc(C(F)(F)F)c1 [XS3-58, (S)—N-(3-CHLORO-5-(TRIFLUOROMETHYL)PHENYL)-3-((6-(3-HYDROXYPYRROLIDIN-1-YL)IMIDAZO[1,2-B]PYRIDAZIN-3-YL)ETHYNYL)-2-METHYLBENZAMIDE] | 10 to 100 | 10 to 100 | 10 to 100 | 100 to 1000 | 10 to 100 | 100 to 1000
CC(=O)N1CCN(c2ccc3ncc(C#Cc4cccc(C(=O)Nc5cc(Cl)cc(C(F)(F)F)c5)c4C)n3n2)CC1 [XS3-54, 3-((6-(4-ACETYLPIPERAZIN-1-YL)IMIDAZO[1,2-B]PYRIDAZIN-3-YL)ETHYNYL)-N-(3-CHLORO-5-(TRIFLUORO) METHYL)PHENYL)-2-METHYLBENZAMIDE] | 10 to 100 | < 10 | < 10 | 10 to 100 | 10 to 100 | 10 to 100
Cc1c(C#Cc2cnc3ncccn23)cccc1C(=O)Nc1cc(CN2CCN(C)CC2)cc(C(F)(F)F)c1 [XS2-161] | > 1000 | 100 to 1000 | 100 to 1000 | > 1000 | > 1000 | > 1000
Cc1c(C#Cc2cnc3ccc(N4CCC(N(C)C)CC4)nn23)cccc1C(=O)Nc1cccc(C(F)(F)F)c1 [XS3-57, 3-((6-(4-(DIMETHYLAMINO)PIPERIDIN-1-YL)IMIDAZO[1,2-B]PYRIDAZIN-3-YL)ETHYNYL)-2-METHYL-N-(3-(TRIFLUOROMETHYL)PHENYL)BENZAMIDE] | < 10 | < 10 | < 10 | 100 to 1000 | 10 to 100 | 10 to 100

The next lines start with results.

IC50 [4] [nM] | IC50 [5] [nM] | IC50 [6] [nM] | Structure (SMILES) | IC50 [1] [nM] | IC50 [2] [nM] | IC50 [3] [nM]
10 to 100 | 10 to 100 | 10 to 100 | Cc1c(C#Cc2cnc3ccc(N4CCOCC4)nn23)cccc1C(=O)Nc1cccc(C(F)(F)F)c1 [XS3-23, 2-METHYL-3-((6-MORPHOLINIMIDAZO[1,2-B]PYRIDAZIN-3-YL)ETHYNYL)-N-(3-(TRIFLUOROMETHYL)BENZENE BASE) BENZAMIDE] | 10 to 100 | 10 to 100 | 10 to 100
10 to 100 | 10 to 100 | 10 to 100 | Cc1c(C#Cc2cnc3ccc(N4CCC(C)(O)CC4)nn23)cccc1C(=O)Nc1cc(Cl)cc(C(F)(F)F)c1 [XS3-153, N-(3-CHLORO-5-(TRIFLUOROMETHYL)PHENYL)-3-(6-(4-HYDROXY-4-METHYLPIPERIDIN-1-YL)IMIDAZO[1,2-B]PYRIDAZIN-3-YL)ETHYNYL)-2-METHYLBENZAMIDE] | 10 to 100 | 10 to 100 | 10 to 100
10 to 100 | 10 to 100 | 10 to 100 | Cc1c(C#Cc2cnc3ccc(N4CCC(N)CC4)nn23)cccc1C(=O)Nc1cc(Cl)cc(C(F)(F)F)c1 [XS3-131, 3-((6-(4-AMINOPIPERIDIN-1-YL)IMIDAZO[1,2-B]PYRIDAZIN-3-YL)ETHYNYL)-N-(3-CHLORO-5-(TRIFLUOROMETHYL)PHENYL)-2-METHYLBENZAMIDE] | 100 to 1000 | 10 to 100 | 100 to 1000
10 to 100 | 10 to 100 | 10 to 100 | Cc1c(C#Cc2cnc3ccc(N4CCOCC4)nn23)cccc1C(=O)Nc1cc(C(F)(F)F)cc(C(F)(F)F)c1 [XS4-76] | 10 to 100 | 10 to 100 | 10 to 100
10 to 100 | 10 to 100 | 10 to 100 | Cc1c(C#Cc2cnc3ccc(N4CCOCC4)nn23)cccc1C(=O)Nc1cc([N+](=O)[O-])cc(C(F)(F)F)c1 [XS4-77] | 10 to 100 | < 10 | 10 to 100
10 to 100 | 10 to 100 | 10 to 100 | COc1cc(NC(=O)c2cccc(C#Cc3cnc4ccc(N5CCOCC5)nn34)c2C)cc(C(F)(F)F)c1 [XS4-72] | 10 to 100 | < 10 | 10 to 100
10 to 100 | < 10 | < 10 | Cc1c(C#Cc2cnc3ccc(NCCN4CCOCC4)nn23)cccc1C(=O)Nc1cc(Cl)cc(C(F)(F)F)c1 [XS3-53, N-(3-CHLORO-5-(TRIFLUOROMETHYL)PHENYL)-2-METHYL-3-((6-((2-MORPHOLINOETHYL)AMINO)IMIDAZO[1,2-B]PYRIDAZIN-3-YL)ETHYNYL)BENZAMIDE] | 100 to 1000 | 10 to 100 | 10 to 100
